Usually Emax stands for the greatest response seen or fitted, relative to the assay's reference.

The record followed here is US7880007B2, “Bicyclic substituted phenyl piperidine modulators of muscarinic receptors” (Vertex Pharmaceuticals Incorporated, priority 2004, dated 2011).

Holding throughout (format): cell-based
One assay deals with T1, M4 muscarinic receptor (Homo sapiens, UniProt P08173).
T1 construct: expressed in transfected cells; host or cells: CHO (M4-CHO)
T1 sequence (P08173 1-479): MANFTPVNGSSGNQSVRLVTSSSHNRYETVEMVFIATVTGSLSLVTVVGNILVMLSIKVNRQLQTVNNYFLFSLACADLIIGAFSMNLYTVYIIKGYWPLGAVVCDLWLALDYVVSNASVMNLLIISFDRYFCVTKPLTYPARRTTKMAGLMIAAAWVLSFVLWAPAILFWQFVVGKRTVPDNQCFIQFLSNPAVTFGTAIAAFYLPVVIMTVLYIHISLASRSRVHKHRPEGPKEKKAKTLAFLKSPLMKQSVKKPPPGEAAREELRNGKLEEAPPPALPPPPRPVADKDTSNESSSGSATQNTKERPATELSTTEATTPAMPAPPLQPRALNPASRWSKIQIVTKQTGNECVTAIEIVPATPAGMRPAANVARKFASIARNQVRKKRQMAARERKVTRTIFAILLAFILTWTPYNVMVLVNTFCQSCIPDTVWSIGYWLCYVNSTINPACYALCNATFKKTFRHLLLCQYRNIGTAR
Put plainly: Functional mobilization of intracellular calcium (FLIPR), M4-CHO cells. The note with it: for Emax: 100% efficacy = maximum response obtained with the Carbachol control; for M4 Activity: M4-CHO cells, calcium mobilization (FLIPR). The procedure, abridged: (§1)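 FLIPR fluorescence (ex 488, em 540 nm) recorded 60 sec after compound addition to dye-loaded CHO cells. Agonist mode: compound alone. Antagonist mode: 15 min compound pre-incubation, then carbachol at EC80, or co-application. Efficacy expressed as % of maximal carbachol response.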

For the next assay, the target named is T2, M1 muscarinic receptor (Homo sapiens, UniProt P11229).
T2 construct: expressed in transfected cells; host or cells: CHO (M1-CHO)
T2 sequence (P11229 1-460): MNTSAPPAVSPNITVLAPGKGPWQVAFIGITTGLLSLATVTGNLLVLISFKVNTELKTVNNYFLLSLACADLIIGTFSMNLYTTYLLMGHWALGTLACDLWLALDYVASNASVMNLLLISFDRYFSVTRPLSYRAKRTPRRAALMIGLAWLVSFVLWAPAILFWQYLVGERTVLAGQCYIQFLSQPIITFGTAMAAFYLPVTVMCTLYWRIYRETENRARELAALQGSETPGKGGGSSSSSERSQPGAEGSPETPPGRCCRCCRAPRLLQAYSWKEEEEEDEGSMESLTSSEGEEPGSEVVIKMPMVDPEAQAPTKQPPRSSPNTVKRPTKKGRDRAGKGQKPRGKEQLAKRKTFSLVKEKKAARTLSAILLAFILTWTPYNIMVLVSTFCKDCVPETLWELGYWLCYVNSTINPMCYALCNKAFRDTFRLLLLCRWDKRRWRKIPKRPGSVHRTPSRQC
Put plainly: Functional mobilization of intracellular calcium (FLIPR), M1-CHO cells. The note with it: for Emax: 100% efficacy = maximum response obtained with the Carbachol control; for M1 Activity: M1-CHO cells, calcium mobilization (FLIPR). The procedure, abridged:
as §1
A general note: Calcium flux is commonly read through the fluorescence of an indicator in the cells.

Another assay addresses T3, M2 muscarinic receptor (Homo sapiens, UniProt P08172).
T3 construct: expressed in transfected cells; host or cells: CHO (M2-CHO)
T3 sequence (P08172 1-466): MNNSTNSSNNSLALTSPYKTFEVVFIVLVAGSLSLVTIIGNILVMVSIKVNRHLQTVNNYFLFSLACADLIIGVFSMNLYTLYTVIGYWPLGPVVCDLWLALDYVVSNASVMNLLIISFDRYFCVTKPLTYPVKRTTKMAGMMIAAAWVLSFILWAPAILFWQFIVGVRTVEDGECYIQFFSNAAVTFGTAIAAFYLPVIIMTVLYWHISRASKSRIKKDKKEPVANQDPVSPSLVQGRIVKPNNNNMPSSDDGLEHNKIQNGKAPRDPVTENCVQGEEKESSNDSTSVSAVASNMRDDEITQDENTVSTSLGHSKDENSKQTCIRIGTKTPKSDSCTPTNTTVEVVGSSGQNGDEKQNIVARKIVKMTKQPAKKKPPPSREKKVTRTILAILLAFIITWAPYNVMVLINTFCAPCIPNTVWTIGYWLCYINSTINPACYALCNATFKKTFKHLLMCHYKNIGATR
Put plainly: Functional mobilization of intracellular calcium (FLIPR), M2-CHO cells. The note with it: for Emax: 100% efficacy = maximum response obtained with the Carbachol control; for M2 Activity: M2-CHO cells, calcium mobilization (FLIPR). The method, boiled down: as §1

The target of another assay is T4, M3 muscarinic receptor (Homo sapiens, UniProt P20309).
T4 construct: expressed in transfected cells; host or cells: CHO (M3-CHO)
T4 sequence (P20309 whole entry): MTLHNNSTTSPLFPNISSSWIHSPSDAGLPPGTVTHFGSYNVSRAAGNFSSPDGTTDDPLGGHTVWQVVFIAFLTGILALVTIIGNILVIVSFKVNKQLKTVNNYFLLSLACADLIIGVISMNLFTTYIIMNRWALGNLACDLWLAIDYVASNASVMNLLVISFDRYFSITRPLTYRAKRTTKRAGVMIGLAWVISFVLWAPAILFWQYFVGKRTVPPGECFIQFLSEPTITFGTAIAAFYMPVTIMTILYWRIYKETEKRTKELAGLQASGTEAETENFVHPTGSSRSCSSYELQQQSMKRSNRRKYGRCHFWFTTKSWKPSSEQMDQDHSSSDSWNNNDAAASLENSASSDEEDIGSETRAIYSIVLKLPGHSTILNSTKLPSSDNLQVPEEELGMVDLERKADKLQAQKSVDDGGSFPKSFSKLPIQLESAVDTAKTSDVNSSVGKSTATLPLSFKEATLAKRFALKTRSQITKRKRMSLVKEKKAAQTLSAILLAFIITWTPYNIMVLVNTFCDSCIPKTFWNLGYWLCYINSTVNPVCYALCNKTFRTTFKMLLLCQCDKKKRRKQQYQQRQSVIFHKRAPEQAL
In words: Functional mobilization of intracellular calcium (FLIPR), M3-CHO cells. The note with it: for Emax: 100% efficacy = maximum response obtained with the Carbachol control; for M3 Activity: M3-CHO cells, calcium mobilization (FLIPR). The procedure, abridged: as §1

With `CCOC(=O)N1CCC(CN2CCC(OC)(c3cc(Cl)ccc3OC)CC2)CC1` [Compound 108], at M4 muscarinic receptor, the Emax lay in the range of 25 to 100% and the “M4 Activity” value was “+++ (activity was measured to be less than 1.0 μM)”. At M1 muscarinic receptor, the Emax was 25 to 100% and the “M1 Activity” value was “+++ (activity was measured to be less than 1.0 μM)”. At M2 muscarinic receptor, the Emax was under 25% and the “M2 Activity” value is listed as “++ (activity was measured to be from 1.0 μM to 5.0 μM)”. For the same compound, at M3 muscarinic receptor, the Emax is under 25% and the “M3 Activity” value is “+ (activity was measured to be greater than 5.0 μM)”.
On to `COc1ccc(C(=O)C(C)(C)C)cc1C1CCN([C@H]2C[C@H]3CC[C@H]2C3)CC1` [Compound 109], for which, at M4 muscarinic receptor, the maximal response (Emax) fell in the range of 25 to 100% and the “M4 Activity” value is “+ (activity was measured to be greater than 5.0 μM)”. At M1 muscarinic receptor, the Emax was in the range of 25 to 100% and the “M1 Activity” value is listed as “++ (activity was measured to be from 1.0 μM to 5.0 μM)”. Further, on M2 muscarinic receptor, the maximal response (Emax) is under 25% and the “M2 Activity” value is listed as “+ (activity was measured to be greater than 5.0 μM)”. Besides, on M3 muscarinic receptor, the Emax is under 25% and the “M3 Activity” value was “+ (activity was measured to be greater than 5.0 μM)”.
Turning to `c1ccc(-c2ccccc2C2CCN([C@H]3C[C@H]4CC[C@H]3C4)CC2)cc1` [Compound 110], on M4 muscarinic receptor, the Emax is 25 to 100% and the “M4 Activity” value is recorded as “++ (activity was measured to be from 1.0 μM to 5.0 μM)”. Also, at M1 muscarinic receptor, the maximum response (Emax) was under 25% and the “M1 Activity” value was “+ (activity was measured to be greater than 5.0 μM)”. Further, on M2 muscarinic receptor, the Emax was under 25% and the “M2 Activity” value is given as “+ (activity was measured to be greater than 5.0 μM)”. Further, on M3 muscarinic receptor, the Emax was under 25% and the “M3 Activity” value is reported as “+ (activity was measured to be greater than 5.0 μM)”.
On to `COCCOc1ccccc1C1CCN([C@H]2C[C@H]3CC[C@H]2C3)CC1` [Compound 111], for which, on M4 muscarinic receptor, the Emax was 25 to 100% and the “M4 Activity” value is “+++ (activity was measured to be less than 1.0 μM)”. Moreover, at M1 muscarinic receptor, the Emax was 25 to 100% and the “M1 Activity” value is given as “++ (activity was measured to be from 1.0 μM to 5.0 μM)”. In addition, at M2 muscarinic receptor, the Emax lay in the range of 25 to 100% and the “M2 Activity” value is reported as “+ (activity was measured to be greater than 5.0 μM)”. Also, at M3 muscarinic receptor, the Emax is under 25% and the “M3 Activity” value was “+ (activity was measured to be greater than 5.0 μM)”.
In the case of `COc1ccccc1C1CCN(C2CC3CC(C)CC(C3)C2)CC1` (stereo not drawn) [Compound 112], on M4 muscarinic receptor, the Emax lay within 25 to 100% and the “M4 Activity” value is recorded as “+ (activity was measured to be greater than 5.0 μM)”. Moreover, on M1 muscarinic receptor, the Emax was under 25% and the “M1 Activity” value is “+ (activity was measured to be greater than 5.0 μM)”. On M2 muscarinic receptor, the maximum response (Emax) was under 25% and the “M2 Activity” value is “+ (activity was measured to be greater than 5.0 μM)”. For the same compound, on M3 muscarinic receptor, the maximal effect (Emax) is under 25% and the “M3 Activity” value is on record as “+ (activity was measured to be greater than 5.0 μM)”.
Turning to `COc1ccccc1C1CCN(C2CCCCC2)CC1` [Compound 113], at M4 muscarinic receptor, the maximal response (Emax) lay within 25 to 100% and the “M4 Activity” value is on record as “+++ (activity was measured to be less than 1.0 μM)”. Besides, on M1 muscarinic receptor, the Emax is 25 to 100% and the “M1 Activity” value was “++ (activity was measured to be from 1.0 μM to 5.0 μM)”. For the same compound, on M2 muscarinic receptor, the maximal response (Emax) is under 25% and the “M2 Activity” value is on record as “+ (activity was measured to be greater than 5.0 μM)”. Besides, at M3 muscarinic receptor, the Emax is under 25% and the “M3 Activity” value was “+ (activity was measured to be greater than 5.0 μM)”.
Regarding `c1ccc(COc2ccccc2C2CCN([C@H]3C[C@H]4CC[C@H]3C4)CC2)cc1` [Compound 114], at M4 muscarinic receptor, the maximal effect (Emax) lay in the range of 25 to 100% and the “M4 Activity” value is listed as “++ (activity was measured to be from 1.0 μM to 5.0 μM)”. At M1 muscarinic receptor, the Emax is under 25% and the “M1 Activity” value is reported as “+ (activity was measured to be greater than 5.0 μM)”. Besides, at M2 muscarinic receptor, the Emax was under 25% and the “M2 Activity” value is “+ (activity was measured to be greater than 5.0 μM)”. Also, at M3 muscarinic receptor, the Emax is under 25% and the “M3 Activity” value is listed as “+ (activity was measured to be greater than 5.0 μM)”.
As for `COc1ccc(Cl)cc1C1CCN(C2CCC(F)(F)CC2)CC1` [Compound 115], at M4 muscarinic receptor, the Emax fell in the range of 25 to 100% and the “M4 Activity” value is “++ (activity was measured to be from 1.0 μM to 5.0 μM)”. Also, at M1 muscarinic receptor, the Emax lay within 25 to 100% and the “M1 Activity” value was “+ (activity was measured to be greater than 5.0 μM)”. Further, on M2 muscarinic receptor, the Emax is under 25% and the “M2 Activity” value is listed as “+ (activity was measured to be greater than 5.0 μM)”. Moreover, on M3 muscarinic receptor, the Emax is under 25% and the “M3 Activity” value was “+ (activity was measured to be greater than 5.0 μM)”.
Regarding `COc1cccc(-c2ccccc2C2CCN([C@H]3C[C@H]4CC[C@H]3C4)CC2)c1` [Compound 116], at M4 muscarinic receptor, the maximal response (Emax) is 25 to 100% and the “M4 Activity” value is “++ (activity was measured to be from 1.0 μM to 5.0 μM)”. On M1 muscarinic receptor, the Emax is 25 to 100% and the “M1 Activity” value was “+ (activity was measured to be greater than 5.0 μM)”. On M2 muscarinic receptor, the Emax is under 25% and the “M2 Activity” value is reported as “+ (activity was measured to be greater than 5.0 μM)”. Also, at M3 muscarinic receptor, the Emax was under 25% and the “M3 Activity” value is “+ (activity was measured to be greater than 5.0 μM)”.
`COc1ccccc1[C@H]1CCN([C@@H]2C[C@H]3CC[C@H]2C3)C[C@@H]1O` [Compound 117]: at M4 muscarinic receptor, the Emax fell in the range of 25 to 100% and the “M4 Activity” value was “+ (activity was measured to be greater than 5.0 μM)”. On M1 muscarinic receptor, the Emax was under 25% and the “M1 Activity” value is on record as “+ (activity was measured to be greater than 5.0 μM)”. Besides, on M2 muscarinic receptor, the Emax is under 25% and the “M2 Activity” value is listed as “+ (activity was measured to be greater than 5.0 μM)”. Besides, at M3 muscarinic receptor, the Emax is under 25% and the “M3 Activity” value is recorded as “+ (activity was measured to be greater than 5.0 μM)”.
For the compound `CCOC(=O)N1C2CCC1CC(N1CCC(OC)(c3cc(F)ccc3OC)CC1)C2` (stereo not drawn) [Compound 118], at M4 muscarinic receptor, the Emax fell in the range of 25 to 100% and the “M4 Activity” value is “+++ (activity was measured to be less than 1.0 μM)”. In addition, at M1 muscarinic receptor, the Emax lay in the range of 25 to 100% and the “M1 Activity” value is “+++ (activity was measured to be less than 1.0 μM)”. On M2 muscarinic receptor, the Emax is under 25% and the “M2 Activity” value is “+ (activity was measured to be greater than 5.0 μM)”. On M3 muscarinic receptor, the Emax was under 25% and the “M3 Activity” value is given as “+ (activity was measured to be greater than 5.0 μM)”.
As for `COc1cccc(C(=O)COc2ccccc2C2CCN([C@H]3C[C@H]4CC[C@H]3C4)CC2)c1` [Compound 119], on M4 muscarinic receptor, the Emax fell in the range of 25 to 100% and the “M4 Activity” value is “++ (activity was measured to be from 1.0 μM to 5.0 μM)”. On M1 muscarinic receptor, the Emax is 25 to 100% and the “M1 Activity” value is reported as “+ (activity was measured to be greater than 5.0 μM)”. At M2 muscarinic receptor, the Emax was 25 to 100% and the “M2 Activity” value was “+ (activity was measured to be greater than 5.0 μM)”. For the same compound, on M3 muscarinic receptor, the Emax was under 25% and the “M3 Activity” value is “+ (activity was measured to be greater than 5.0 μM)”.
